Measured values taken from ChEMBL document CHEMBL1152803, “Synthesis and vasodilator effects of rutaecarpine analogues which might be involved transient receptor potential vanilloid subfamily, member 1 (TRPV1)” (Bioorg Med Chem, 2009).
Active and inactive are the calls of the source. The rule behind the calls is not given here.

tested on: Rattus norvegicus; assay: Antihypertensive activity against phenol-induced hypertension in Sprague-Dawley rat assessed as decrease in mean arterial pressure at 300 µg/kg, iv in presence of capsaicin administered 4 days before compound administration; details: Artery

Cc1ccc2[nH]c3c(c2c1)CCn1c-3nc2ccccc2c1=O was tested, and the Activity was “inactive”.

tested on: Rattus norvegicus; assay: Antihypertensive activity against phenol-induced hypertension in iv dosed Sprague-Dawley rat assessed as decrease in mean arterial blood pressure; assay type: functional, organism-based; details: Artery

For Cc1ccc2[nH]c3c(c2c1)CCn1c-3nc2ccccc2c1=O, the Activity was “Dose-dependent effect”.

tested on: Aorta; assay: Vasodilative activity against […] Sprague-Dawley rat thoracic aorta assessed as reduction in phenylepinephrine-induced contraction; assay type: functional, tissue-based; details: not given

Going from CC(=O)c1ccc2[nH]c3c(c2c1)CCn1c-3nc2ccccc2c1=O to Cc1ccc2[nH]c3c(c2c1)CCn1c-3nc2ccccc2c1=O, the EC50 falls from 3.25 µM to 1.24 µM (2.6-fold).

First: O=c1c2ccccc2c(O)c2n1CCc1c-2[nH]c2ccccc12
Second: COc1ccc2[nH]c3c(c2c1)CCn1c-3c(O)c2ccccc2c1=O
The EC50 of the first is 2.7-fold higher: 15400 µM for the first, 5700 µM for the second.

Compared with COc1ccc2[nH]c3c(c2c1)CCn1c-3nc2ccccc2c1=O, COc1ccc2[nH]c3c(c2c1)CCn1c-3nc2cc(Cl)ccc2c1=O is 2.4-fold lower in EC50: 55.1 µM for the first, 22.5 µM for the second.

Compared with COc1ccc2[nH]c3c(c2c1)CCN1C(=O)c2ccccc2OC31C (stereo not given), CC12Oc3ccccc3C(=O)N1CCc1c2[nH]c2ccccc12 (stereo not given) is 1.7-fold higher in EC50: 934 µM for the first, 1590 µM for the second. The first is the more potent here.

O=c1c2ccccc2nc2n1CCc1c-2[nH]c2c(Cl)cc(Cl)c(Cl)c12 and O=c1c2ccccc2nc2n1CCc1c-2[nH]c2c(Cl)cccc12 are within 1.5-fold of each other in EC50: 2.31 µM for the first, 2.44 µM for the second.

Compared with Cc1cccc2c3c([nH]c12)-c1nc2ccccc2c(=O)n1CC3, O=c1c2ccccc2nc2n1CCc1c-2[nH]c2ccccc12 [RUTAECARPINE] is 2.2-fold lower in EC50: 2.99 µM for the first, 1.33 µM for the second.

Compared with COc1ccc2[nH]c3c(c2c1)CCn1c-3nc2ccc(Cl)cc2c1=O, COc1ccc2[nH]c3c(c2c1)CCn1c-3nc2ccc(Br)cc2c1=O is 4.5-fold higher in EC50: 2.11 µM for the first, 9.4 µM for the second.

First: O=c1c2ccc(Cl)cc2nc2n1CCc1c-2[nH]c2ccccc12
Second: O=c1c2cc(Cl)ccc2nc2n1CCc1c-2[nH]c2ccccc12
The EC50 of the first is 1.5-fold lower: 21.1 µM for the first, 32.3 µM for the second.

First: COc1ccc2[nH]c3c(c2c1)CCN1C(=O)c2ccccc2OC31 (stereo not given)
Second: O=C1c2ccccc2OC2c3[nH]c4ccccc4c3CCN12 (stereo not given)
The EC50 of the first is 290-fold higher: 63600 µM for the first, 220 µM for the second. The second is the more potent here.

O=c1c2c(Cl)cccc2nc2n1CCc1c-2[nH]c2ccccc12 and COc1ccc2[nH]c3c(c2c1)CCn1c-3nc2cccc(Cl)c2c1=O are within 1.5-fold of each other in EC50: 16.8 µM for the first, 19.7 µM for the second.

c1ccc2c(c1)CN1CCc3c([nH]c4ccccc34)C1N2 (stereo not given) [RUTAECARPANE] and c1ccc2c(c1)CN1CCc3c([nH]c4ccccc34)C1=N2 [RUTAECARPENE] are within 1.5-fold of each other in EC50: 20.1 µM for the first, 25.1 µM for the second.

Going from COC(=O)C(Cc1c[nH]c2ccccc12)n1cnc2ccccc2c1=O (stereo not given) to O=C1c2ccccc2NC2(C(F)(F)F)c3[nH]c4ccccc4c3CCN12 (stereo not given), the EC50 falls from 5460 µM to 7.86 µM (690-fold).

Going from CC(=O)c1ccc2[nH]c3c(c2c1)CCn1c-3nc2ccccc2c1=O to Cc1ccc2[nH]c3c(c2c1)CCn1c-3nc2ccccc2c1=O, the Emax rises from 68.2% to 85.1%.

Going from O=c1c2ccccc2c(O)c2n1CCc1c-2[nH]c2ccccc12 to COc1ccc2[nH]c3c(c2c1)CCn1c-3c(O)c2ccccc2c1=O, the Emax falls from 14.1% to 13.2%.

Compared with COc1ccc2[nH]c3c(c2c1)CCn1c-3nc2ccccc2c1=O, COc1ccc2[nH]c3c(c2c1)CCn1c-3nc2cc(Cl)ccc2c1=O is lower in Emax: 42.6% for the first, 33.9% for the second.

First: COc1ccc2[nH]c3c(c2c1)CCN1C(=O)c2ccccc2OC31C (stereo not given)
Second: CC12Oc3ccccc3C(=O)N1CCc1c2[nH]c2ccccc12 (stereo not given)
The Emax of the first is higher: 31.6% for the first, 29.9% for the second.

Compared with O=c1c2ccccc2nc2n1CCc1c-2[nH]c2c(Cl)cc(Cl)c(Cl)c12, O=c1c2ccccc2nc2n1CCc1c-2[nH]c2c(Cl)cccc12 is lower in Emax: 51% for the first, 50.1% for the second.

Going from Cc1cccc2c3c([nH]c12)-c1nc2ccccc2c(=O)n1CC3 to O=c1c2ccccc2nc2n1CCc1c-2[nH]c2ccccc12 [RUTAECARPINE], the Emax rises from 47% to 79.3%.

Compared with COc1ccc2[nH]c3c(c2c1)CCn1c-3nc2ccc(Cl)cc2c1=O, COc1ccc2[nH]c3c(c2c1)CCn1c-3nc2ccc(Br)cc2c1=O is lower in Emax: 55.2% for the first, 40.3% for the second.

Compared with O=c1c2ccc(Cl)cc2nc2n1CCc1c-2[nH]c2ccccc12, O=c1c2cc(Cl)ccc2nc2n1CCc1c-2[nH]c2ccccc12 is higher in Emax: 36.6% for the first, 40.6% for the second.

First: COc1ccc2[nH]c3c(c2c1)CCN1C(=O)c2ccccc2OC31 (stereo not given)
Second: O=C1c2ccccc2OC2c3[nH]c4ccccc4c3CCN12 (stereo not given)
The Emax of the first is lower: 13% for the first, 39.8% for the second.

First: O=c1c2c(Cl)cccc2nc2n1CCc1c-2[nH]c2ccccc12
Second: COc1ccc2[nH]c3c(c2c1)CCn1c-3nc2cccc(Cl)c2c1=O
The Emax of the first is higher: 39.6% for the first, 37.1% for the second.

Compared with c1ccc2c(c1)CN1CCc3c([nH]c4ccccc34)C1N2 (stereo not given) [RUTAECARPANE], c1ccc2c(c1)CN1CCc3c([nH]c4ccccc34)C1=N2 [RUTAECARPENE] is higher in Emax: 63.6% for the first, 68.9% for the second.

Going from COC(=O)C(Cc1c[nH]c2ccccc12)n1cnc2ccccc2c1=O (stereo not given) to O=C1c2ccccc2NC2(C(F)(F)F)c3[nH]c4ccccc4c3CCN12 (stereo not given), the Emax rises from 15.5% to 42.5%.
